“Also recorded” adds a separate entry of the source. Like-named read-outs stand apart in the source and are kept apart here.
What was measured:
[1] = Dynamic moisture sorption gravimetry (DMSG) of salts of Compound I; type: physicochemical
Description: Dynamic Moisture Sorption Gravimetry (DMSG).
DMSG isotherm was collected on a temperature controlled atmospheric microbalance. Approximately 10 mg samples were placed in the sample pan of the balance. The humidity was sequentially varied from room relative humidity (RH) to 0% RH and was then increased to 90% RH followed by a decrease of RH to 0% again in 3% RH steps. The mass was then measured every two minutes. The RH was stepped to the next target value when change of the sample mass was less than 0.5 μg in 10 min. The Visual Basic program dmsgscn2.exe was used to control the data collection and export the information to an Excel spreadsheet.

[2] = Estimation of solubility in various solvents by step-wise solvent addition; type: physicochemical
Description: Samples of 1-2 mg of Compound I phosphate (lot 35282-CS-51) were transferred to 10 mL glass vials (tared) and were weighed (accurate to 0.1 mg). Solvents were added to the vials (one solvent to each vial) in a step-wise fashion, with 0.5 mL of solvent added at each step. Solvents used were buffer (pH=2), buffer (pH=5), water, methanol, tetrahydrofuran (THF), acetonitrile, and acetone. After each addition, the vial was capped and shaken. The dissolution of solid was visually observed. If no obvious dissolution was observed, more solvent was added immediately. If dissolution was apparent, the vial was left on the bench for at least 30 minutes before the next addition of solvent. This step was repeated until no crystals were visible against a black and a white background. The solubility was then bracketed by dividing the weight of the compound by the final volume and the volume before the last addition. If a solid remained after the addition of 10 mL of solvent, the solubility was expressed as less than the weight divided by the final volume. If the solid was completely dissolved after the first addition of solvent, the solubility was expressed as greater than the weight divided by the solvent volume. All experiments were conducted at room temperature.

Wettability with water = type: physicochemical
KIT = KIT phosphorylation in canine mast cell tumor biopsies before and after a single dose (immunoprecipitation/Western blot); type: in vivo
Description: (§1) Study Design. This study was a proof of target modulation study in dogs with recurrent or metastatic grade MCTs. Patients received a single oral dose of Compound I phosphate at 3.25 mg/kg. Using a 6-mm punch biopsy instrument, samples were obtained from the tumor before Compound I phosphate administration and 8 hours (h) after treatment. When possible, multiple biopsies were taken. Each sample was flash frozen in liquid nitrogen and stored at −70° centigrade (C) before analysis. Blood samples for analysis of plasma levels of Compound I phosphate were obtained at the same time as tumor biopsies (see below).
Analysis of KIT and ERK Phosphorylation. Tumor biopsies were frozen in liquid nitrogen and later pulverized using a liquid nitrogen-cooled cryomortar and pestle, then stored at −70° C. until used. For the analysis of KIT, pulverized tumors were homogenized, lysed, and immunoprecipitated from 1 mg of starting tumor lysate, as described previously (Abrams, T. J., Lee, L. B., Murray, L. J., Pryer, N. K., Cherrington, J. M. SU11248 inhibits KIT and platelet-derived growth factor receptor beta in preclinical models of human small cell lung cancer. Mol. Cancer Ther. 2: 471-478, 2003; which is incorporated by reference in its entirety) using an agarose-conjugated antibody to KIT (SC-1493AC; Santa Cruz Biotechnology, Santa Cruz, Calif.). […] The amount of phosphorylated KIT in each sample was determined by Western blot using an antibody to phosphotyrosine 719 of murine KIT (3391; Cell Signaling Technology, Beverly, Mass.), which corresponds to tyrosine 721 of canine KIT and is an autophosphorylation site and, thus, a surrogate for KIT kinase activity. […] Target modulation was scored by eye by three observers blinded to the JM status and plasma concentration. Reduction of ≧50% in phospho-protein signal relative to total protein signal in the biopsy sample taken post-treatment compared with the pretreatment biopsy was scored as positive for target modulation, whereas a reduction of <50% was scored negative.

ERK1/2 = ERK1/2 phosphorylation in canine mast cell tumor biopsies before and after a single dose (Western blot); type: in vivo; settings: single oral dose 3.25 mg/kg
Description: as §1
Analysis of KIT and ERK Phosphorylation. […] The amount of phosphorylated KIT in each sample was determined by Western blot using an antibody to phosphotyrosine 719 of murine KIT (3391; Cell Signaling Technology, Beverly, Mass.), which corresponds to tyrosine 721 of canine KIT and is an autophosphorylation site and, thus, a surrogate for KIT kinase activity. […] Target modulation was scored by eye by three observers blinded to the JM status and plasma concentration. Reduction of ≧50% in phospho-protein signal relative to total protein signal in the biopsy sample taken post-treatment compared with the pretreatment biopsy was scored as positive for target modulation, whereas a reduction of <50% was scored negative.

[3] = tested on: recurrent mast cell tumors; experiment: Multicenter, placebo-controlled, double blind, randomized study in dogs with recurrent mast cell tumors; type: in vivo
Description: Purpose. The effectiveness of Compound I phosphate oral tablets for the treatment of mast cell tumors in client-owned animals that had recurrent measurable disease after surgery was evaluated in a masked, negative controlled study. The study evaluated every-other-day dosing of Compound I phosphate at 3.25 mg free base equivalents (FBE)/kg body weight on disease response using modified (RECIST) criteria of response. The presence or absence of c-kit mutation in mast cell tumors was evaluated as a covariate in this study. For decision-making purposes, the duration of the study was 6 weeks.
One-hundred-fifty-three (153) dogs were randomized in a ratio of 4:3 into one of two treatment groups: T01 (Placebo in which n=65) and T02 (Compound I phosphate in which n=88). Ten veterinary oncology practices in the United States were selected and enrolled cases. For enrollment, dogs had to have recurrent mast cell tumor (at least one target lesion had to have a minimum longest diameter of 20 mm)±regional lymph node involvement. A maximum of three target lesions (measurable mast cell tumors) and all non-target lesions (all remaining lesions, measurable or un-measurable) were identified at baseline by two evaluators. Efficacy was based on the objective response (complete response or partial response) at the week 6 visit where the mean of the two evaluators sum of the longest diameter of target lesions (Mean Sum LD) was compared to the Baseline Mean Sum LD for calculation of percent reduction or increase. Assessment of non-target lesions was subjective. A complete response (CR) was defined as the disappearance of all target and non-target lesions and the appearance of no new lesions; a partial response (PR) was defined as at least a 30% decrease in the Mean Sum LD of target lesions compared to the Baseline Mean Sum LD and non-progression of non-target lesions and appearance of no new lesions. Tissue samples from the tumor and distant normal skin were collected prior to randomization and submitted for the assessment of c-kit mutation status.

With Cc1[nH]c(/C=C2\C(=O)Nc3ccc(F)cc32)c(C)c1C(=O)NCCN1CCCC1 [Compound I phosphate] the “% water at 80% RH” value ([1]; 80% RH) was ~1%, the “water at 80 percent humidity” value ([1]; 80 percent relative humidity) was “about 1%” and the Estimated solubility ([2]; Acetone, 23° C.) was <<<0.2 mg/mL. For the same compound, the Estimated solubility ([2]; Acetonitrile, 23° C.) was <<<0.13 mg/mL, the Estimated solubility ([2]; THF, 23° C.) was <<<0.19 mg/mL and the solubility ([2]; buffer (pH 2), pH 2, at pH 2 or lower, read-out: solubility) was > 3000 µg/mL. For the same compound, the solubility ([2]; buffer (pH 2, HCl and KCl), 23 °C, pH 2, aqueous buffer, thermodynamic from solid, buffer (pH = 2, HCl and KCl), 23° C., read-out: Estimated solubility) was 5900 to 7400 µg/mL, the Estimated solubility ([2]; methanol, 23° C.) was ~0.14 mg/mL and the solubility ([2]; water, 23 °C, pH 4.91, water, thermodynamic from solid, water, 23° C., final solution pH 4.91, read-out: Estimated solubility) was ~290 µg/mL. For the same compound, the “wettability with water compared with Compound I free base” value (Wettability with water) was “much better”, the “evaluable MCT biopsy pairs with detectable inhibition of KIT activation” value (KIT; Eight of 11, single oral dose) was 73% and the “P-KIT reduction postdose (Phospho-Tyr721 KIT)” value (KIT; individual dogs, single oral dose 3.25 mg/kg, biopsy 8 h after treatment vs pretreatment) was “Yes (Reduction of ≧50% in phospho-protein signal relative to total protein signal in the biopsy sample taken post-treatment compared with the pretreatment biopsy was scored as positive for target modulation); also recorded: No (a reduction of <50% was scored negative)”. The “evaluable dogs scored positive for KIT target modulation (≧50% reduction in phosphorylated KIT relative to total KIT)” value (KIT; single oral dose 3.25 mg/kg) was “Eight”, the “P-ERK½ reduction postdose (Phospho-Thr202/Tyr204 ERK½)” value (ERK1/2; individual dogs, biopsy 8 h after treatment vs pretreatment) was “Yes (Reduction of ≧50% in phospho-protein signal relative to total protein signal in the biopsy sample taken post-treatment compared with the pretreatment biopsy was scored as positive for target modulation); also recorded: No (a reduction of <50% was scored negative)” and the “evaluable tumors showing a reduction in the ratio of phospho-ERK1/2 to total ERK1/2” value (ERK1/2) was 7 of 11 evaluable. For the same compound, the “animals that experienced progressive disease” value ([3]; 3.25 mg FBE/kg every other day, 6 weeks, 29/86) was 33.7%, the “objective response rate (complete or partial response)” value ([3]; 3.25 mg FBE/kg every other day, oral tablets, week 6, 33/86) was 38.3% and the “objective response, dogs positive for the c-kit mutation” value ([3]; T02 group, 12/20) was 60%. For the same compound, the “objective response, dogs negative for the c-kit mutation” value ([3]; T02 group, 21/64) was 32.8%.

From US8987320B2, “Solid salt forms of a pyrrole substituted 2-indolinone” (Zoetis LLC, priority 2005, dated 2015)
